Test results taken from the supplement of paper PMC13207355.

Legend:
Conditions in all cases: exposure time: 72 h
[1] = test system: E13 (patient-derived glioblastoma stem cells of classical subtype); assay: surviving fraction (nuclei count normalised to DMSO); higher = more cells surviving (less toxic)
[2] = test system: E21 (patient-derived glioblastoma stem cells of mesenchymal subtype); assay: as above
[3] = test system: E28 (patient-derived glioblastoma stem cells of classical subtype); assay: as above
[4] = test system: E31 (patient-derived glioblastoma stem cells of proneural subtype); assay: as above
[5] = test system: E34 (patient-derived glioblastoma stem cells of proneural subtype); assay: as above
[6] = test system: E57 (patient-derived glioblastoma stem cells of mesenchymal subtype); assay: as above
[7] = test system: FT3469 (normal neural stem cell line); assay: as above
[8] = test system: E13; assay: phenotypic distance (Euclidean, principal components) from DMSO controls (arbitrary units); higher = stronger morphological change
[9] = test system: E21; assay: as above
[10] = test system: E28; assay: as above
[11] = test system: E31; assay: as above
[12] = test system: E34; assay: as above
[13] = test system: E57; assay: as above
[14] = test system: FT3469; assay: as above
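For phenotypic distance (Euclidean, principal components) from DMSO controls in this document: cell Painting imaging in 384-well plates, CellProfiler features reduced to at least 20 principal components, Euclidean distance versus same-plate DMSO vehicle wells (0.1% v/v), median over six images per well.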
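For surviving fraction (nuclei count normalised to DMSO) in this document: nuclei counted by high-content imaging of Hoechst-stained cells in laminin-coated 384-well plates, relative to 0.1% DMSO vehicle wells, with staurosporine as cell-death control.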

C[C@H](Cc1cc2c(c(C(N)=O)c1)N(CCCO)CC2)NCCOc1ccccc1OCC(F)(F)F [Silodosin]
Conditions | phenotypic distance | surviving fraction
[1], 4.1 nM | – | 0.879
[1], 12.3 nM | – | 0.889
[1], 37 nM | – | 0.914
[1], 111.1 nM | – | 0.899
[1], 333.3 nM | – | 0.859
[1], 1000 nM | – | 0.9
[1], 3000 nM | – | 0.93
[2], 4.1 nM | – | 0.872
[2], 12.3 nM | – | 0.94
[2], 37 nM | – | 0.885
[2], 111.1 nM | – | 0.958
[2], 333.3 nM | – | 0.998
[2], 1000 nM | – | 1.04
[2], 3000 nM | – | 1.03
[3], 4.1 nM | – | 0.896
[3], 12.3 nM | – | 0.951
[3], 37 nM | – | 0.935
[3], 111.1 nM | – | 0.781
[3], 333.3 nM | – | 0.941
[3], 1000 nM | – | 0.892
[3], 3000 nM | – | 0.877
[4], 4.1 nM | – | 1.03
[4], 12.3 nM | – | 0.873
[4], 37 nM | – | 0.879
[4], 111.1 nM | – | 0.922
[4], 333.3 nM | – | 0.967
[4], 1000 nM | – | 0.962
[4], 3000 nM | – | 0.852
[5], 4.1 nM | – | 0.923
[5], 12.3 nM | – | 0.923
[5], 37 nM | – | 0.82
[5], 111.1 nM | – | 0.869
[5], 333.3 nM | – | 0.932
[5], 1000 nM | – | 0.863
[5], 3000 nM | – | 0.802
[6], 4.1 nM | – | 0.935
[6], 12.3 nM | – | 0.844
[6], 37 nM | – | 0.878
[6], 111.1 nM | – | 0.843
[6], 333.3 nM | – | 0.955
[6], 1000 nM | – | 0.911
[6], 3000 nM | – | 0.792
[7], 4.1 nM | – | 0.874
[7], 12.3 nM | – | 0.91
[7], 37 nM | – | 1.05
[7], 111.1 nM | – | 0.959
[7], 333.3 nM | – | 0.939
[7], 1000 nM | – | 0.815
[7], 3000 nM | – | 0.925
[8], 4.1 nM | 0.445 | –
[8], 12.3 nM | 0.872 | –
[8], 37 nM | 0.863 | –
[8], 111.1 nM | 0.966 | –
[8], 333.3 nM | 0.915 | –
[8], 1000 nM | 0.684 | –
[8], 3000 nM | 0.641 | –
[9], 4.1 nM | 2.39 | –
[9], 12.3 nM | 1.7 | –
[9], 37 nM | 1.04 | –
[9], 111.1 nM | 0.791 | –
[9], 333.3 nM | 0.998 | –
[9], 1000 nM | 0.539 | –
[9], 3000 nM | 1.04 | –
[10], 4.1 nM | 0.716 | –
[10], 12.3 nM | 0.594 | –
[10], 37 nM | 0.634 | –
[10], 111.1 nM | 0.795 | –
[10], 333.3 nM | 0.798 | –
[10], 1000 nM | 0.495 | –
[10], 3000 nM | 0.823 | –
[11], 4.1 nM | 0.63 | –
[11], 12.3 nM | 0.581 | –
[11], 37 nM | 1.01 | –
[11], 111.1 nM | 0.959 | –
[11], 333.3 nM | 0.426 | –
[11], 1000 nM | 0.534 | –
[11], 3000 nM | 1.14 | –
[12], 4.1 nM | 1.06 | –
[12], 12.3 nM | 0.76 | –
[12], 37 nM | 0.492 | –
[12], 111.1 nM | 2.26 | –
[12], 333.3 nM | 0.348 | –
[12], 1000 nM | 1.18 | –
[12], 3000 nM | 1.12 | –
[13], 4.1 nM | 0.807 | –
[13], 12.3 nM | 1.04 | –
[13], 37 nM | 0.711 | –
[13], 111.1 nM | 1.62 | –
[13], 333.3 nM | 0.512 | –
[13], 1000 nM | 0.794 | –
[13], 3000 nM | 1.7 | –
[14], 4.1 nM | 1.28 | –
[14], 12.3 nM | 0.608 | –
[14], 37 nM | 0.869 | –
[14], 111.1 nM | 0.648 | –
[14], 333.3 nM | 1.02 | –
[14], 1000 nM | 0.845 | –
[14], 3000 nM | 1.05 | –

N=C(NCCCCCCNC(=N)NC(=N)Nc1ccc(Cl)cc1)NC(=N)Nc1ccc(Cl)cc1 [Chlorhexidine]
Conditions | phenotypic distance | surviving fraction
[1], 4.1 nM | – | 1.03
[1], 12.3 nM | – | 1.05
[1], 37 nM | – | 0.948
[1], 111.1 nM | – | 1.01
[1], 333.3 nM | – | 0.969
[1], 1000 nM | – | 0.943
[1], 3000 nM | – | 0.409
[2], 4.1 nM | – | 0.973
[2], 12.3 nM | – | 1.01
[2], 37 nM | – | 0.964
[2], 111.1 nM | – | 0.946
[2], 333.3 nM | – | 0.941
[2], 1000 nM | – | 0.899
[2], 3000 nM | – | 0.259
[3], 4.1 nM | – | 1.05
[3], 12.3 nM | – | 1.13
[3], 37 nM | – | 1.1
[3], 111.1 nM | – | 1.16
[3], 333.3 nM | – | 1.11
[3], 1000 nM | – | 0.694
[3], 3000 nM | – | 0.289
[4], 4.1 nM | – | 0.921
[4], 12.3 nM | – | 0.969
[4], 37 nM | – | 1.07
[4], 111.1 nM | – | 1.04
[4], 333.3 nM | – | 0.889
[4], 1000 nM | – | 0.765
[4], 3000 nM | – | 0.401
[5], 4.1 nM | – | 0.914
[5], 12.3 nM | – | 0.993
[5], 37 nM | – | 0.955
[5], 111.1 nM | – | 0.752
[5], 333.3 nM | – | 1.03
[5], 1000 nM | – | 0.892
[5], 3000 nM | – | 0.659
[6], 4.1 nM | – | 0.972
[6], 12.3 nM | – | 1.03
[6], 37 nM | – | 0.962
[6], 111.1 nM | – | 1.03
[6], 333.3 nM | – | 0.967
[6], 1000 nM | – | 0.838
[6], 3000 nM | – | 0.307
[7], 4.1 nM | – | 1.05
[7], 12.3 nM | – | 0.955
[7], 37 nM | – | 1.1
[7], 111.1 nM | – | 0.981
[7], 333.3 nM | – | 0.883
[7], 1000 nM | – | 0.806
[7], 3000 nM | – | 0.537
[8], 4.1 nM | 0.429 | –
[8], 12.3 nM | 1.39 | –
[8], 37 nM | 0.262 | –
[8], 111.1 nM | 2.5 | –
[8], 333.3 nM | 0.491 | –
[8], 1000 nM | 0.464 | –
[8], 3000 nM | 3.49 | –
[9], 4.1 nM | 0.562 | –
[9], 12.3 nM | 0.828 | –
[9], 37 nM | 0.696 | –
[9], 111.1 nM | 0.95 | –
[9], 333.3 nM | 0.783 | –
[9], 1000 nM | 0.943 | –
[9], 3000 nM | 6.35 | –
[10], 4.1 nM | 0.971 | –
[10], 12.3 nM | 0.644 | –
[10], 37 nM | 0.865 | –
[10], 111.1 nM | 0.807 | –
[10], 333.3 nM | 0.749 | –
[10], 1000 nM | 1.41 | –
[10], 3000 nM | 3.14 | –
[11], 4.1 nM | 0.524 | –
[11], 12.3 nM | 0.525 | –
[11], 37 nM | 0.809 | –
[11], 111.1 nM | 0.944 | –
[11], 333.3 nM | 1.22 | –
[11], 1000 nM | 2.29 | –
[11], 3000 nM | 2.76 | –
[12], 4.1 nM | 0.526 | –
[12], 12.3 nM | 0.799 | –
[12], 37 nM | 0.756 | –
[12], 111.1 nM | 0.826 | –
[12], 333.3 nM | 0.445 | –
[12], 1000 nM | 0.747 | –
[12], 3000 nM | 3.01 | –
[13], 4.1 nM | 0.332 | –
[13], 12.3 nM | 0.353 | –
[13], 37 nM | 0.497 | –
[13], 111.1 nM | 0.85 | –
[13], 333.3 nM | 0.64 | –
[13], 1000 nM | 1.98 | –
[13], 3000 nM | 4.85 | –
[14], 4.1 nM | 1.53 | –
[14], 12.3 nM | 0.951 | –
[14], 37 nM | 0.654 | –
[14], 111.1 nM | 0.806 | –
[14], 333.3 nM | 0.554 | –
[14], 1000 nM | 1.03 | –
[14], 3000 nM | 2.68 | –
